From patent US20110207789A1, “METHODS RELATED TO CASEIN KINASE II (CK2) INHIBITORS AND THE USE OF PURINOSOME-DISRUPTING CK2 INHIBITORS FOR ANTI-CANCER THERAPY AGENTS” (priority 2010, published 2011)
Like-named read-outs stand apart in the source and are kept apart here. Numbered stars: 1 amine (or outer) side, 2 acyl side, 3 side chain; on linkers, the order of the positions; unused ones are H or OH. Bridge positions count the residues as written; N and C are the ends. Square brackets hold non-standard residues; d marks the D form. Peptide text beside a SMILES is read from it. Trp(2-yl) = O=C([C@H](Cc1c([*:3])[nH]c2ccccc12)N[*:1])[*:2]; Leu(4R-OH,5-OH) = C[C@](O)(CO)C[C@H](N)C(=O)O; cisHyp = O=C(O)[C@@H]1C[C@H](O)CN1

Tests used:
Format in all cases: cell-based
[1] = test system: HeLa cells; experiment: Label-free Epic RWG biosensor DMR assay in HeLa cells cultured in regular serum medium; conditions: for Effect of pretreatment on the sequential TBB response after DMAT / Effect of pretreatment on the sequential DMAT response after TBB: order modulator (10 μM), each step about 1 hr; for Effect of pretreatment on the sequential TBB response after DMAT / Effect of pretreatment on the sequential DMAT response after TBB / Effect of pretreatment on the TBB DMR response / Sensitivity of the DMR signal to cellular status: DMAT 25 μM; for Effect of pretreatment on the sequential TBB response after DMAT / Effect of pretreatment on the sequential DMAT response after TBB / Effect of pretreatment on the DMAT DMR response: TBB 50 μM; for Effect of pretreatment on the DMAT DMR response / Effect of pretreatment on the TBB DMR response: pretreatment about 1 hr, modulators 10 μM; for Effect of pretreatment on the DMAT DMR response: then DMAT 25 μM; for Effect of pretreatment on the TBB DMR response: then TBB 50 μM; for Type of DMR signal triggered by the compound alone: HeLa cells, regular serum medium, high confluency; for EC50: Homo sapiens, synchronized HeLa cells, 25,000 cells per well; for Classification as purinosome promoting or disrupting CK2 inhibitor: from DMR signals in HeLa cells; for Effect on purinosome complexes in quiescent cells: high seeding density; for Effect on purinosome complexes in proliferating cells: low seeding density; for Sensitivity of the DMR signal to cellular status: three seeding densities (5,000, 10,000, 20,000 cells per well), TBB 100 μM
Description: HeLa cells were obtained from American Type Cell Culture (Manassas, Va.). This cervical cancer cell line was maintained in standard serum medium (i.e., minimum essential medium (MEM) (Invitrogen) supplemented with 10% fetal bovine serum (FBS) and 1% Penicillin/streptomycin). To investigate the effects of purine depletion on the purinosome formation and dissociation, HeLa cells were maintained for at least two passages in “purine-depleted medium” prior cell assays. […] FBS was dialyzed against 0.9% NaCl at 4° C. for ˜2 days using a 25 kDa MWCO dialysis membrane to remove purines. This process completely removes the purines normally present in FBS.
Cells were typically grown using ˜1 to 2×10^4 cells per well at passage 3 to 15 suspended in 50 μl of the corresponding culture medium in the biosensor microplate, and were cultured at 37° C. under air/5% CO2 for ˜1 day. The confluency for all cells at the time of assays was ˜100%.
Epic® wavelength interrogation system (Corning Inc., Corning, N.Y.) was used for whole cell sensing. This system consists of a temperature-control unit, an optical detection unit, and an on-board liquid handling unit with robotics. The detection unit is centered on integrated fiber optics, and enables kinetic measures of cellular responses with a time interval of ˜15sec. The compound solutions were introduced by using the on-board liquid handling unit (i.e., pippetting).
(§1) For biosensor cellular assays, compound solutions were made by diluting the stored concentrated solutions with the HBSS (1× Hanks balanced salt solution, plus 20 mM Hepes, pH 7.1), and transferred into a 384 well polypropylene compound storage plate to prepare a compound source plate. Two compound source plates were made separately when a two-step assay was performed. In parallel, the cells were washed twice with the HBSS and maintained in 30 μl of the HBSS to prepare a cell assay plate. Both the cell assay plate and the compound source plate(s) were then incubated in the hotel of the reader system. After incubation the baseline wavelengths of all biosensors in the cell assay microplate were recorded and normalized to zero. Afterwards, a 2 to 10 min continuous recording was carried out to establish a baseline, and to ensure that the cells reached a steady state. Cellular responses were then triggered by transferring 10 μl of the compound solutions into the cell assay plate using the on-board liquid handler.
All studies were carried out at a controlled temperature (28° C.). At least two independent sets of experiments, each with at least three replicates, were performed.

[2] = test system: purinosome complexes; experiment: Fluorescence imaging of purinosome complexes, transient transfection of fluorescent purine synthesis enzymes; conditions: purine depleted medium cultured cells, low confluency (~50%); data not shown
Description: The inconsistency in the action of TBB between fluorescence imaging and label-free cellular assays can be due to that confocal fluorescence imaging is largely single cell-based, while label-free assay is largely population cells-based, as well as different confluencies used in both assays.

[3] = test system: HeLa cells; experiment: Label-free Epic DMR assay in HeLa cells cultured in purine depleted medium; conditions: TBB 100 μM, DMAT 25 μM
Description: HeLa cells were obtained from American Type Cell Culture (Manassas, Va.). This cervical cancer cell line was maintained in standard serum medium (i.e., minimum essential medium (MEM) (Invitrogen) supplemented with 10% fetal bovine serum (FBS) and 1% Penicillin/streptomycin). To investigate the effects of purine depletion on the purinosome formation and dissociation, HeLa cells were maintained for at least two passages in “purine-depleted medium” prior cell assays. The purine depleted medium is a medium consisting of Roswell Park Memorial Institute 1640 (RPMI 1640) supplemented with dialyzed 5% FBS […]. FBS was dialyzed against 0.9% NaCl at 4° C. for ˜2 days using a 25 kDa MWCO dialysis membrane to remove purines. This process completely removes the purines normally present in FBS. […]
For biosensor cellular assays, compound solutions were made by diluting the stored concentrated solutions with the HBSS (1× Hanks balanced salt solution, plus 20 mM Hepes, pH 7.1), and transferred into a 384 well polypropylene compound storage plate to prepare a compound source plate. […] Both the cell assay plate and the compound source plate(s) were then incubated in the hotel of the reader system. After incubation the baseline wavelengths of all biosensors in the cell assay microplate were recorded and normalized to zero. […]

[4] = test system: HT29 cells; experiment: TBB-mediated DMR signal in HT29 cells; conditions: 10 μM TBB, highly confluent cells
Method: as §1, with “All other cell lines were obtained from American Type Cell Culture (Manassas, VA) and were cultured under corresponding standard culture conditions, according to the protocol recommended by the supplier. Cells were typically grown using ˜1 to 2×10^4 cells per well at passage 3 to 15 suspended in 50 μl of the corresponding culture medium in the biosensor microplate, and were cultured at 37° C. under air/5% CO2 for ˜1 day. The confluency for all cells at the time of assays was ˜100%. For” for “For”, “Cellular responses were then triggered by transferring 10 μl of the compound solutions into the cell assay plate using the on-board liquid handler.” left out

Row | Structure (SMILES) | Effect of pretreatment on the sequential TBB response after DMAT [1] | Effect of pretreatment on the DMAT DMR response [1] | Effect of pretreatment on the TBB DMR response [1] | Type of DMR signal triggered by the compound alone [1] | Classification as purinosome promoting or disrupting CK2 inhibitor [1] | also measured
1 | C/C1=C/C(=O)O[C@@H]2C[C@@H](CC[C@H](C)/C=C\C=C\CC1)O[C@@](O)([C@@H]1CSC(=O)N1)C2 [latrunculin A] | altered | attenuated | completely inhibiting the early DMR event | – | – | Effect of pretreatment on the sequential DMAT response after TBB [1]: smaller DMAT response
2 | Cc1cc(C(C)(C)C)c(O)c(C)c1CC1=NCCN1 [oxymetazoline] | potentiation | attenuated | – | Gi-like DMR signal | – | –
3 | CN(C)c1nc2c(Br)c(Br)c(Br)c(Br)c2[nH]1 [DMAT, 2-Dimethylamino-4,5,6,7-tetrabromo-1H-benzimidazole] | – | – | N-DMR similar to the buffer treated cells | P-DMR | purinosome promoting CK2 inhibitors | Effect on purinosome complexes by fluorescence imaging [2]: formation of purinosome complexes; EC50 ([1]; dependent on the time points after stimulation (6 min and 50 min), read-out: EC50 of dose-dependent P-DMR response): 5 to 22 µM; Effect on purinosome complexes in quiescent cells [1]: promotes the further formation of purinosome complexes; Effect on purinosome complexes in proliferating cells [1]: promote the formation of purinosomes; Sensitivity of the DMR signal to cellular status [1]: insensitive to cellular status; Type of DMR signal in purine depleted culture [3]: P-DMR
4 | C[C@@H]1NC(=O)[C@H](C[C@@](C)(O)CO)NC(=O)[C@@H]2Cc3c([nH]c4ccccc34)SC[C@H](NC(=O)[C@@H]([C@H](C)O)NC1=O)C(=O)N1C[C@@H](O)C[C@H]1C(=O)N[C@@H](C)C(=O)N2 [phalloidin] (cyclo(A[dT]C[cisHyp]A[Trp(2-yl)][Leu(4R-OH,5-OH)]); thioether 3-6) | – | little impact | little impact | – | – | –
5 | COC(=O)Nc1nc2ccc(C(=O)c3cccs3)cc2[nH]1 [nocodazole] | slightly suppressed | potentiated | reversed | – | – | Effect of pretreatment on the sequential DMAT response after TBB [1]: suppression
6 | CC[C@]1(O)C[C@@H]2CN(CCc3c([nH]c4ccccc34)[C@@](C(=O)OC)(c3cc4c(cc3OC)N(C)[C@H]3[C@@](O)(C(=O)OC)[C@H](OC(C)=O)[C@]5(CC)C=CCN6CC[C@]43[C@@H]65)C2)C1 [vinblastine] | – | – | reversed | – | – | Effect of pretreatment on the sequential DMAT response after TBB [1]: suppression
7 | OC[C@H]1O[C@@H](n2cnc3cc(Cl)c(Cl)cc32)[C@H](O)[C@@H]1O [DRB, 5,6-Dichlorobenzimidazole 1-(β-D-ribofuranoside] | – | desensitized | slightly potentiated | DMR signals similar to the DMAT response | purinosome promoting CK2 inhibitors | –
8 | O=C(O)/C=C/c1cc(Br)c(Br)c(Br)c1Br [TBCA, Tetrabromocinnamic Acid] | – | desensitized | slightly potentiated | DMR signals similar to the DMAT response | purinosome promoting CK2 inhibitors | –
9 | Clc1cccc(Cl)c1N=C1NCCN1 [clonidine] | – | – | dose-dependently potentiated | – | – | –
10 | Brc1c(Br)c(Br)c2[nH]nnc2c1Br [TBB, 4,5,6,7-tetrabromobenzotriazole] | – | slightly potentiated | – | N-DMR | pruinosome disrupting CK2 inhibitors | Effect on purinosome complexes by fluorescence imaging [2]: disassembly of purinsome complexes; TBB DMR signal in HT29 cells [4]: an initial P-DMR followed by a N-DMR; EC50 ([1]; 50 min, amplitude 50 min after stimulation, read-out: EC50 of dose-dependent N-DMR signal): 25 µM; Effect on purinosome complexes in quiescent cells [1]: causes the disassembly of basal purinosome complexes; Effect on purinosome complexes in proliferating cells [1]: promote the formation of purinosomes; Sensitivity of the DMR signal to cellular status [1]: dramatically sensitive to cellular status; Type of DMR signal in purine depleted culture [3]: P-DMR
11 | CC(C)(C)NCC(O)c1cc(O)cc(O)c1 (stereo not drawn) [terbutaline] | little or no impact | little or no impact | – | Gs-like DMR signal | – | –
12 | O=c1cc(-c2ccc(O)cc2)oc2cc(O)cc(O)c12 [apigenin] | – | – | – | DMR signals similar to the DMAT response | purinosome promoting CK2 inhibitors | –
